Test results from patent publication US20070093460A1, “Methods of using selective 11beta-HSD inhibitors to treat gluocorticoid associated states” (priority 2005, published 2007).
“Also recorded” adds a separate entry of the source. Where two headings read alike, the source gives them in different places.

How the values were obtained:
[1] = target: T1, 11β-HSD2 (Ovis aries, UniProt P50168); assay: 11β-HSD2 enzyme activity in sheep kidney microsomes; assay type: biochemical; details: for inhibitors of 11β-HSD2 (summary in words): summary of the screening
T1 construct: incubating sheep kidney microsomal fraction (6.5 μg protein) with 50 nM corticosterone; from tissue; host or cells: sheep kidney microsomal fraction
T1 sequence (P50168 1-427): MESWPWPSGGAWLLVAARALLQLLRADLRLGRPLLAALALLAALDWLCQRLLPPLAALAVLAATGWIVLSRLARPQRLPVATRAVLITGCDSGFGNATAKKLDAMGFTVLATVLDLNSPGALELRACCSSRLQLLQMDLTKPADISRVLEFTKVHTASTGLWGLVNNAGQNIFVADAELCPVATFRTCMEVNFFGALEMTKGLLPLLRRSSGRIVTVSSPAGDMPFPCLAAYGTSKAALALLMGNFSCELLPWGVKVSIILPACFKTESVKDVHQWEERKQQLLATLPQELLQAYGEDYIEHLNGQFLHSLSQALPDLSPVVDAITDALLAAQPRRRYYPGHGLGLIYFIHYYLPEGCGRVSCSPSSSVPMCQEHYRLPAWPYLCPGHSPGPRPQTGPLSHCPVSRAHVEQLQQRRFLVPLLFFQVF
Source text: The enzymatic reaction was termninated by addition of methanol and synthesis of 11-dehydro-corticosterone was quantitated by HPLC as described above.

[2] = target: T2, 11β-HSD1 Reductase (Rattus norvegicus, UniProt P16232); assay: Table 1: inhibition of 11β-HSD1 reductase; assay type: biochemical; details: Table 1, inhibition in words
[3] = target: T3, 11β-HSD1 Dehydrogenase (Rattus norvegicus, UniProt P16232); assay: Table 1: inhibition of 11β-HSD1 dehydrogenase; assay type: biochemical; details: Table 1, inhibition in words
[4] = target: T4, 11β-HSD2 Dehydrogenase (Ovis aries, UniProt P50168); assay: Table 1: inhibition of 11β-HSD2 dehydrogenase; assay type: biochemical; details: Table 1, inhibition in words
T4 sequence (P50168 1-427): T1 sequence (P50168 1-427)

[5] = target: T2, 11β-HSD1 Reductase; assay: 11β-HSD1 reductase assay in rat Leydig cell homogenates; details: for Leydig Cell 11β-HSD1 Reductase [S]= 600 nM: rat Leydig cell homogenates, 600 nM 11-dehydro-corticosterone;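 as to all read-outs here: rat Leydig cell homogenate incubated 20 min at 37 °C, pH 7.4, with tritiated 11-dehydro-corticosterone and 3 mM NADPH, product measured by HPLC, inhibition from triplicate dose–response curves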
Method: Each enzyme reaction (described below) was stopped by adding 750 μL MeOH. After centrifugation, an aliquot of supernatant was analyzed by HPLC using a DuPont Zorbax C8 column.
11β-HSD1 dehydrogenase was assayed by incubating homogenates (13,000 cells equivalent) with 600 nM [^3H]-B (0.5 μCi) in the presence of 3 mM NADP, 50 mM Tris-HCl; pH 8.4 at 37° C. for 10 minutes in a total volume of 250 μL. 11β-HSD1 reductase was assayed by incubating homogenates (52,000 cells equivalent) with 600 nM [^3H]-11-dehydro-corticosterone in presence of 3 mM NADPH, 50 mM Tris-HCl; pH 7.4 at 37° C. for 20 minutes in a total volume of 250 μL.
Each concentration was tested in triplicate and the dose response curve, showing percentage inhibition versus log concentration of steroid was plotted. The data fitted a log-linear straight line.

[6] = target: T3, 11β-HSD1 Dehydrogenase; assay: 11β-HSD1 dehydrogenase assay in rat Leydig cell homogenates; assay type: biochemical; set-up: Freshly prepared rat Leydig cell homogenates were chosen since they provide a rich and reliable source of both 11β-HSD1 dehydrogenase and reductase; from tissue; host or cells: rat testicular Leydig cells, homogenate; details: for inhibitors of 11β-HSD1 dehydrogenase (summary in words): summary of the screening;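 as to all read-outs here: tritiated corticosterone conversion by 11β-HSD1 dehydrogenase in Leydig homogenates with 3 mM NADP at pH 8.4, 37 °C for 10 min, products resolved by HPLC, inhibition relative to uninhibited enzyme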
[7] = test system: rat aortic rings; assay: Contractile response of rat aortic rings to phenylephrine; assay type: cell-based; details: rings incubated 24 h with steroid (corticosterone 10 nmol/L; 11-dehydro-corticosterone 100 nmol/L)
Method: Male Sprague-Dawley (150-200 g) rats were anesthetized with pentobarbital (50 mg/kg IP), and a median sternotomy was performed followed by the rapid removal of the thoracic aorta. The adventitia was removed, but the endothelium was left intact. The aorta was cut into 2-3 mm rings and individual rings were placed into a single well of a twenty four well culture plate and incubated at 37° C. under 95% 02-5% CO2. Each well contained 1 mL of DMEM/F12 containing 1% fetal bovine serum, streptomycin (100 μg/ml), penicillin (100 units/ml) and amphotericin (0.25 μg/ml). Aortic rings were incubated for 24 hours prior to contractility measurements with the following combinations of steroids, and antisense/nonsense oligonucleotides (3 μmol/L):
Antisense phosphorothioate oligonucleotides, targeted to block either 11β-HSD2 or 11β-HSD1 gene expression, were obtained from Research Genetics, Huntsville Ala. Antisense oligomers complementary to 20 bp sequences spanning the ribosome binding/translation start site were used. Oligomer sequences were: 5′-CATAACTGCCGTCCAACAGC-3′ (SEQ ID NO. 1) for 11β-HSD1 Antisense and 5′-AGGCCAGCGCTCCATGACTT-3′ (SEQ ID NO 2) for 11β-HSD2 antisense. In control experiments the corresponding sense sequence was used as the nonsense oligomer. Antisense and nonsense oligomers were added directly to each well at 20 μg/10:1 sterile H2O per well for a final concentration of 3 μmol/L.
For contraction measurements, aortic rings were suspended by tungsten wires with 1 g of tension and placed in a vessel bath containing serum free DMEM/F12 media at 37° C. aerated with 95% O2-5% CO2, at pH 7.4. Vessels were equilibrated for 20 minutes and then tested with phenylephrine (1 nmol/L-10 μmol/L). Although phenylephrine is structurally not a catecholamine, it is considered to be a functional catecholamine as it activates both a and P adrenoceptors. Due to its favorable stability characteristics, it is widely used as a catecholamine substitute in experiments of this nature. The intensity of contraction was assessed by use of a Narishige micromanipulator and model FT03 force transducer (Grass Instrument Co. West Warwick, R.I.). Measurements were recorded on computer using the Labview 4.1 Virtual Instrument System (National Instruments, Austin, Tex.).

[8] = 11β-HSD2, sheep kidney microsomes, 50 nM corticosterone, NAD+, aldosterone, cortisol, corticosterone series, read-out: Dehydrogenase [S] = 50 nM
[9] = rat Leydig cell homogenates, 600 nM corticosterone, NADP, corticosteroid series, read-out: Leydig Cell 11β-HSD1 Dehydrogenase [S]= 600 nM

T3 sequence (P16232 whole entry): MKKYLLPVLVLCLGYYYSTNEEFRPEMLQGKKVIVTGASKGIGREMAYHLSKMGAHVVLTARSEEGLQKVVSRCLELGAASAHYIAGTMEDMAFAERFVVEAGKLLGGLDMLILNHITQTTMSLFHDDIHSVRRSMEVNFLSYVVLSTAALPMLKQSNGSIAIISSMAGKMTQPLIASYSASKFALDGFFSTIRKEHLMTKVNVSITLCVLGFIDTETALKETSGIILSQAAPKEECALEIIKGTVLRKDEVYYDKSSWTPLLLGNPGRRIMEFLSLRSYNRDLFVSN
T2 sequence (P16232 whole entry): as above

SMILES	IC50 [1, 8] [nM]	inhibitors of 11β-HSD2 (summary in words) [1]	11β-HSD1 Reductase [2]	11β-HSD1 Dehydrogenase [3]	11β-HSD2 Dehydrogenase [4]	IC50 [5] [nM]	inhibitors of 11β-HSD1 reductase (summary in words) ([5]; summary of the screening)	IC50 [6, 9] [nM]	IC50 [1] [nM]	inhibitors of 11β-HSD2 (summary in words) ([1]; listed as 11β-OH-testosterone)	Leydig Cell 11β-HSD1 Reductase [S]= 600 nM ([5]; progesterone and androgen derivatives)	IC50 [6] [nM]	inhibitors of 11β-HSD1 dehydrogenase (summary in words) [6]	inhibitors of 11β-HSD1 dehydrogenase (summary in words) ([6]; listed as 11β-OH-testosterone)	inhibitors of 11β-HSD1 dehydrogenase (summary in words) ([6]; listed as 11β-hydroxy-testosterone)	inhibitors of 11β-HSD2 (summary in words) ([1]; listed as 3α,5α-TH -aldosterone)	inhibitors of 11β-HSD2 (summary in words) ([1]; listed as 3α,5α-TH-aldosterone)	Leydig Cell 11β-HSD1 Reductase [S]= 600 nM ([5]; NADPH, corticosteroid series)	amplification of the contractile response to phenylephrine by the steroid [7]
C[C@]12CC[C@@H](O)C[C@H]1CC[C@@H]1[C@H]2C(=O)C[C@]2(C)[C@@H](C(=O)CO)CC[C@@H]12 [3α,5α-TH-11-dehydrocorticosterone, 5α-Pregnan-3α,21-diol-11,20-dione]	800	potent inhibitors; also recorded: high potency	Potent Inhibitor	No Inhibition	Potent Inhibitor	700	potent inhibitors; also recorded: high potency	8000	–	–	–	–	–	–	–	–	–	–	–
C[C@]12C[C@H](O)[C@@H]3[C@@H](CCC4=CC(=O)CC[C@@]43C)[C@H]1CC[C@@H]2O [11β-OH-Testosterone, 4-Androsten-11β,17β-diol-3-one]	–	–	No Inhibition	Inhibitor (Non-Selective)	Inhibitor (Non-Selective)	> 100000	–	–	350	potent inhibitors; also recorded: high potency	inactive	9000	potent inhibitors	high potency	potently inhibit	–	–	–	–
C[C@]12CC[C@@H](O)C[C@H]1CC[C@@H]1[C@H]2[C@@H](O)C[C@]2(C=O)[C@@H](C(=O)CO)CC[C@@H]12 [3α,5α-TH-Aldosterone, 5α-Pregnan-3α,11β,21-triol-20-one-18-al]	500	–	No Inhibition	Moderate Inhibitor	Potent Inhibitor	> 100000	–	25000	–	–	–	–	–	–	–	potent inhibitors	high potency	inactive	–
C[C@]12CCC(=O)C[C@H]1CC[C@@H]1[C@H]2[C@@H](O)C[C@]2(C)[C@@H](C(=O)CO)CC[C@@H]12 [5α-DH-Corticosterone, 5α-Pregnan-11β,-21-diol-3,20-dione]	–	potent inhibitors; also recorded: high potency	No inhibition	Potent Inhibitor	Potent Inhibitor	6300	–	–	150	–	–	2100	potent inhibitors; also recorded: high potency	–	–	–	–	–	–
C[C@]12C[C@H](O)[C@H]3[C@@H](CCC4=CC(=O)CC[C@@]43C)[C@@H]1CC[C@@H]2C(=O)CO [corticosterone, reference compound]	–	–	–	–	–	–	–	–	–	–	–	–	–	–	–	–	–	–	amplified contractile responses
